In one series the target is A[…]. ENZ. (Homo sapiens, UniProt P12821). Nature of the series: biochemical. Conditions: read-out: A[…]. ENZ. percent activity or inhibition compared to the assay reference.
The next series deals with HISTAMINE H2 REC. (Homo sapiens, UniProt P25021). As to the kind of experiment: biochemical. As to conditions: read-out: HISTAMINE H2 REC. percent activity or inhibition compared to the assay reference.
For another series, the target named is CDK2 (Homo sapiens, UniProt P24941). Nature of the series: biochemical. Conditions: read-out: CDK2 percent activity or inhibition compared to the assay reference.
The next series addresses μ OPIOID REC. (Homo sapiens, UniProt P35372). Nature of the series: biochemical. Conditions: read-out: μ OPIOID REC. percent activity or inhibition compared to the assay reference.
The next series deals with 5HT2A (Homo sapiens, UniProt P28223). As to the kind of experiment: biochemical. Conditions: read-out: 5HT2A percent activity or inhibition compared to the assay reference.
In a further series the target is NORE[…]. (Homo sapiens, UniProt P23975). Nature of the series: biochemical. Conditions: read-out: NORE[…]. percent activity or inhibition compared to the assay reference.
The target in another series is DOPAMINE D2 REC. (short) (Homo sapiens, UniProt P14416). Nature of the series: biochemical. Conditions: read-out: DOPAMINE D2 REC. (short) percent activity or inhibition compared to the assay reference.
For another series, the target named is β2-ADRENOCEPTOR (Homo sapiens, UniProt P07550). As to the kind of experiment: biochemical. Conditions: read-out: β2-ADRENOCEPTOR percent activity or inhibition compared to the assay reference.
The next series addresses β1-ADRENOCEPTOR (Homo sapiens, UniProt P08588). Nature of the series: biochemical. Conditions: read-out: β1-ADRENOCEPTOR percent activity or inhibition compared to the assay reference.
Another series concerns the target HISTAMINE H3 REC. (Homo sapiens, UniProt Q9Y5N1). Nature of the series: biochemical. Conditions: read-out: HISTAMINE H3 REC. percent activity or inhibition compared to the assay reference.
Another series addresses PROSTAGLANDIN F REC. (Homo sapiens, UniProt P43088). As to the kind of experiment: biochemical. As to conditions: read-out: PROSTAGLANDIN F REC. percent activity or inhibition compared to the assay reference.
The next series concerns the target ABCB1 (MDR1, human P-gp) (Homo sapiens, UniProt P08183). Nature of the series: P-glycoprotein (P-gp) assay in LLC-PK1 cells transfected with ABCB1. As to conditions: for Papp A→B: human, LLC-PK1.
A further series concerns the target ADENOSINE A1 REC. (Homo sapiens, UniProt P30542). Nature of the series: biochemical. Conditions: read-out: ADENOSINE A1 REC. percent activity or inhibition compared to the assay reference.
The target in a further series is C[…]. CB1 (Homo sapiens, UniProt P21554). Nature of the series: biochemical. As to conditions: read-out: C[…]. CB1 percent activity or inhibition compared to the assay reference.
Another series addresses ADENOSINE A3 REC. (Homo sapiens, UniProt P0DMS8). As to the kind of experiment: biochemical. As to conditions: read-out: ADENOSINE A3 REC. percent activity or inhibition compared to the assay reference.
Another series concerns the target ESTROGEN REC. α (Homo sapiens, UniProt P03372). Nature of the series: biochemical. As to conditions: read-out: ESTROGEN REC. α percent activity or inhibition compared to the assay reference.
The target of the next series is SEROTONIN TRANSPORTER (Homo sapiens, UniProt P31645). As to the kind of experiment: biochemical. Conditions: read-out: SEROTONIN TRANSPORTER percent activity or inhibition compared to the assay reference.
Another series has as its target 5HT1A (Homo sapiens, UniProt P08908). As to the kind of experiment: biochemical. Conditions: read-out: 5HT1A percent activity or inhibition compared to the assay reference.
For another series, the target named is ACETYLCHOLINESTERASE (Homo sapiens, UniProt P22303). As to the kind of experiment: biochemical. As to conditions: read-out: ACETYLCHOLINESTERASE percent activity or inhibition compared to the assay reference.
The next series can be described thus: Hepatocyte clearance. As to conditions: for hepatocyte CLint at 1 µM: human, hepatocytes.
The next series addresses α2A-ADRENOCEPTOR (Homo sapiens, UniProt P08913). Nature of the series: biochemical. Conditions: read-out: α2A-ADRENOCEPTOR percent activity or inhibition compared to the assay reference.
For the next series, the target named is CYP2C9 (Homo sapiens, UniProt P11712). As to the kind of experiment: Cytochrome P450 inhibition assay, CYP2C9. As to conditions: liver microsomes. On the technique in general: Liver microsomes are a subcellular fraction often used to study metabolism.
The target of a further series is α1A-ADRENOCEPTOR (Homo sapiens, UniProt P35348). Nature of the series: biochemical. As to conditions: read-out: α1A-ADRENOCEPTOR percent activity or inhibition compared to the assay reference.
For a further series, the target named is GLUC[…]. (Homo sapiens, UniProt P04150). Nature of the series: biochemical. Conditions: read-out: GLUC[…]. percent activity or inhibition compared to the assay reference.
Series [1] in a line: Parallel Artificial Membrane Permeability (PAMPA). Conditions: for Papp at 18 h, 150 µM: PAMPA, pH 6. On the technique in general: PAMPA measures passive passage across an artificial lipid membrane.
The test system of the next series is PCP NMDA REC. As to conditions: 10 uM; n=2.
The test system of another series is GABA-A. Conditions: 10 uM; n=2.
Another series relates to CA2+ CHANNEL (L-TYPE). Conditions: 10 uM; n=2.
The test system of another series is GLYCINE REC. As to conditions: 10 uM; n=2.
The next series deals with NEURONAL NICOTINIC REC. Conditions: 10 uM; n=2.

SEROTONIN TRANSPORTER, sequence (P31645 whole entry): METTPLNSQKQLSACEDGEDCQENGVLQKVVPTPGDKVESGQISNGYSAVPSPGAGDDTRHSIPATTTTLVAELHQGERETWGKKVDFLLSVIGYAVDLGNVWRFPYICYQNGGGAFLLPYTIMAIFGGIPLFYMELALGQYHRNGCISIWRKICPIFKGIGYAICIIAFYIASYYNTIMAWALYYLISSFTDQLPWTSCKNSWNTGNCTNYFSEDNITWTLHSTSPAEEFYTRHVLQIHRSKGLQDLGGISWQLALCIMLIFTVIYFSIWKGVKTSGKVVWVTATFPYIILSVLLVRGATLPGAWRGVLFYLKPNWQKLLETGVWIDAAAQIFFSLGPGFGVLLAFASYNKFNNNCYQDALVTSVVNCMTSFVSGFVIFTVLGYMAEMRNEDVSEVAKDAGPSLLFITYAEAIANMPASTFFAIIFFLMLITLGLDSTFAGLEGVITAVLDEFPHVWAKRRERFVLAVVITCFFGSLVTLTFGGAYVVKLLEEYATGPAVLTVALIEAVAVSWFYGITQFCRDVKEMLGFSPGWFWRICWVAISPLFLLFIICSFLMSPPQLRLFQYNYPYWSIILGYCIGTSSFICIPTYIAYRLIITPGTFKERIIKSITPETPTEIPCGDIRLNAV
μ OPIOID REC., sequence (P35372 whole entry): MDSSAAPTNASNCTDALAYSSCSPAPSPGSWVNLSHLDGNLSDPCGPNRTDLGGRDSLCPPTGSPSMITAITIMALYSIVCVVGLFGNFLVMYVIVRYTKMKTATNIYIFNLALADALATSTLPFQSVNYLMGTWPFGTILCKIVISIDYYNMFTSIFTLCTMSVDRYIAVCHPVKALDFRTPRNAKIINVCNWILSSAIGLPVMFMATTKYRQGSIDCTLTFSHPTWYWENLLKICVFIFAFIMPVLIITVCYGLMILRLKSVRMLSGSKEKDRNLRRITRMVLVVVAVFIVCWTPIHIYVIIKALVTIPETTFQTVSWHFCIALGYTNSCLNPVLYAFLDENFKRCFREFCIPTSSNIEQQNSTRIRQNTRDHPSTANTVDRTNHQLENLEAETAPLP
A[…]. ENZ., sequence (P12821 30-1306): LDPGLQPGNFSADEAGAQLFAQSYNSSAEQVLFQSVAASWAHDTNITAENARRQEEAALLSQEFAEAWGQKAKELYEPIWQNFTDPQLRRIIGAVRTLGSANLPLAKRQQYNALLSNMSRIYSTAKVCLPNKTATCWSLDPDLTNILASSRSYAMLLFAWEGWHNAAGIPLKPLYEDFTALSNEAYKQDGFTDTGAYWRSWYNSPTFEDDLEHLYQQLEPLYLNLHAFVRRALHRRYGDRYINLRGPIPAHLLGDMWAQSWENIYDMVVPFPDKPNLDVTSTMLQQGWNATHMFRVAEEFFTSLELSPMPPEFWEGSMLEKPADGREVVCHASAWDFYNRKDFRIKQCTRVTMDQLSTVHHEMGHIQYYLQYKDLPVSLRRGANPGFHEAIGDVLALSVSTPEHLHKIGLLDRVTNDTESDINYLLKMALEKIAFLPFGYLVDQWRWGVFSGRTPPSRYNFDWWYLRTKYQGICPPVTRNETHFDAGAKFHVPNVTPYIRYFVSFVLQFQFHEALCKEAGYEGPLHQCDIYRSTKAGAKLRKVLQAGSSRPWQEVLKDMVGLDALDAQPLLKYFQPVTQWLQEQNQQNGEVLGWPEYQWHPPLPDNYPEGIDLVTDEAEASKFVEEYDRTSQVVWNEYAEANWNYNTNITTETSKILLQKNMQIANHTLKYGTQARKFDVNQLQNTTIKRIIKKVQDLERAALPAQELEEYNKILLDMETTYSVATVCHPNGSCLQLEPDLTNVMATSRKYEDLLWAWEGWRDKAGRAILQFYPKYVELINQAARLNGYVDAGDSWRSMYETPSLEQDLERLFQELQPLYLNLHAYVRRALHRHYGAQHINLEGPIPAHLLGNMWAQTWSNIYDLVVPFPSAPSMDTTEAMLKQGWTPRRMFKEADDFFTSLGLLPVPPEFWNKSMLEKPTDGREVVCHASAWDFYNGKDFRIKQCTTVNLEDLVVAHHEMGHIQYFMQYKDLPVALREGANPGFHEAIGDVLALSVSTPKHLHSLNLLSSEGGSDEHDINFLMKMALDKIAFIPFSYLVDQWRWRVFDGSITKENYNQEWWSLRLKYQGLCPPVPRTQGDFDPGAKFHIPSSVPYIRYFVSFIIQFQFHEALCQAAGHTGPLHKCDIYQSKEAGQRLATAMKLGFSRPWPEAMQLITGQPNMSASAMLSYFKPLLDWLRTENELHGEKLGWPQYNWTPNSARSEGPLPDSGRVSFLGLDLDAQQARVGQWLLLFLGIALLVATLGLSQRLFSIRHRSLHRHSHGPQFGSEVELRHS
5HT1A, sequence (P08908 whole entry): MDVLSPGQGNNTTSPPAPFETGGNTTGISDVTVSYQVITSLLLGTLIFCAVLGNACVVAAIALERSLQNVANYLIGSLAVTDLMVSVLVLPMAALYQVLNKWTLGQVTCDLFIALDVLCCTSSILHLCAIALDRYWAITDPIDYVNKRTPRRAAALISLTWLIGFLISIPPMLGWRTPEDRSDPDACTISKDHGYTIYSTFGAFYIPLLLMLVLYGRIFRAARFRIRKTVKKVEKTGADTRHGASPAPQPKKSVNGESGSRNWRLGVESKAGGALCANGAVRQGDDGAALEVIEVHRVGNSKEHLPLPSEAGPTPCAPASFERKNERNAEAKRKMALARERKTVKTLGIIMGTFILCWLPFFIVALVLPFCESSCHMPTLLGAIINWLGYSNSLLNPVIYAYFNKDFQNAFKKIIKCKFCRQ
UniProt P22303, sequence (P22303 32-614): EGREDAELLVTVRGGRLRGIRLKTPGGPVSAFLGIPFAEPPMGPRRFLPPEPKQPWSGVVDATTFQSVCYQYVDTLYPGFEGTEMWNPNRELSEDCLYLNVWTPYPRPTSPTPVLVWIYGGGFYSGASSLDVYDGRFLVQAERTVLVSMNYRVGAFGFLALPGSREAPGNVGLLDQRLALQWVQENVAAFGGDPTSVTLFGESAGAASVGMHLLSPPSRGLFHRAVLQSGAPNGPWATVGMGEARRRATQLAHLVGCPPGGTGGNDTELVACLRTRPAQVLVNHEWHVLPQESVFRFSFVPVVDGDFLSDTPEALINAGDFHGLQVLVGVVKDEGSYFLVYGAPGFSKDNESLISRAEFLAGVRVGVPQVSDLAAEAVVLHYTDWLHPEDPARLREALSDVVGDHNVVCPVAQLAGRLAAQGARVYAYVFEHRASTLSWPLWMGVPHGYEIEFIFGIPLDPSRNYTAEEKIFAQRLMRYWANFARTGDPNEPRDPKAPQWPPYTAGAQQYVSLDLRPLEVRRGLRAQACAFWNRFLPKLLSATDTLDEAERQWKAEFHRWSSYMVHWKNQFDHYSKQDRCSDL
GLUC[…]., sequence (P04150 whole entry): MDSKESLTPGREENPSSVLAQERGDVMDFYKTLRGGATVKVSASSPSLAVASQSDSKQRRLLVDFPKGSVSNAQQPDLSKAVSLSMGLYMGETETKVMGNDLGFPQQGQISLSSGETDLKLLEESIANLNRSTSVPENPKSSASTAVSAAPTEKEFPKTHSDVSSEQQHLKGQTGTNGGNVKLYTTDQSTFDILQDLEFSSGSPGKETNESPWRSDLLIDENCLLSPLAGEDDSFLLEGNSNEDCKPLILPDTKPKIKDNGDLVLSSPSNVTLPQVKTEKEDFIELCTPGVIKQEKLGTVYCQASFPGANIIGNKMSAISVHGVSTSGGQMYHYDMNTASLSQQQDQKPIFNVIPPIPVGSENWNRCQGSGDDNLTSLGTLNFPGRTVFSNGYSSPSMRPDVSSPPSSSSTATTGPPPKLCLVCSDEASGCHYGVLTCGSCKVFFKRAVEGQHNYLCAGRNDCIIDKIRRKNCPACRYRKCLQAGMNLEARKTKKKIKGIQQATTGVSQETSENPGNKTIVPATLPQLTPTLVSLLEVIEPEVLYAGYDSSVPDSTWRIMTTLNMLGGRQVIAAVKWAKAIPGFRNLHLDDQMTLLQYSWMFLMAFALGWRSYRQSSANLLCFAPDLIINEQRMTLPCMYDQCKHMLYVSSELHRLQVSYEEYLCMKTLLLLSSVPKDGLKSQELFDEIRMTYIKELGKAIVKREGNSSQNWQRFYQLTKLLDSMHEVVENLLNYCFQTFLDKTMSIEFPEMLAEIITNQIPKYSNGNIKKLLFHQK
ESTROGEN REC. α, sequence (P03372 whole entry): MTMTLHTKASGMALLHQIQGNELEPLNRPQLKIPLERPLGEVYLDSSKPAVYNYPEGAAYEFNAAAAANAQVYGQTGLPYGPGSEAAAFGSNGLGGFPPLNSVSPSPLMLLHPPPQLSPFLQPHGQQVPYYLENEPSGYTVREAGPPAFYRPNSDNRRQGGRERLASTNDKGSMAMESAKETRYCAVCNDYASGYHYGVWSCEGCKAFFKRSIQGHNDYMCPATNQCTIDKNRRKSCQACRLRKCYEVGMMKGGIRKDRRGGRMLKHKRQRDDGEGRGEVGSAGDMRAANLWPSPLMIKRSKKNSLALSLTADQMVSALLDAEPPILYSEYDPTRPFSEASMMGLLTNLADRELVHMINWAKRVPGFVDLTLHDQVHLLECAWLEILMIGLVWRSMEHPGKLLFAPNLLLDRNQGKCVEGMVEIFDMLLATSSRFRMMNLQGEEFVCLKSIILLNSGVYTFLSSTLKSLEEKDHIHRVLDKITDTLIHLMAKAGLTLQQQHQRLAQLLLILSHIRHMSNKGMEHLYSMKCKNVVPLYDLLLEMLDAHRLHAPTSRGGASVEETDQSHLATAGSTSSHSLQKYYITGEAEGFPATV
ADENOSINE A1 REC., sequence (P30542 whole entry): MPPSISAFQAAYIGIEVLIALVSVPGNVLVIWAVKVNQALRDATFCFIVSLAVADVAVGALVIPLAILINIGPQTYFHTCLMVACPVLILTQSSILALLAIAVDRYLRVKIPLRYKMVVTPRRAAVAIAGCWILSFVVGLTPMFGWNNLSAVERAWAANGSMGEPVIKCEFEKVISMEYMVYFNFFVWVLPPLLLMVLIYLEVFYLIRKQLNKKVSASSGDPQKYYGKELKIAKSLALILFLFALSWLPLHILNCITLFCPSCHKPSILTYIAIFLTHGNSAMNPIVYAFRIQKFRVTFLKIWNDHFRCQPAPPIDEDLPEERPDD

Take `O=C(c1ccc2nc(-c3cccnc3)oc2c1)N1CCN(c2nc3ccccc3c(=O)[nH]2)CC1` [Compound 17]: the inhibition at 10 µM was determined as 16% at A[…]. ENZ.; 1% at HISTAMINE H2 REC.; 3% at CDK2; 48% on μ OPIOID REC.; 7% at 5HT2A; 15% at NORE[…].. For the same compound, the inhibition at 10 µM on DOPAMINE D2 REC. (short) is -10%; on β2-ADRENOCEPTOR it was 1%; at β1-ADRENOCEPTOR, 4%; on HISTAMINE H3 REC. it was 14%; at PROSTAGLANDIN F REC., -2%; at ADENOSINE A1 REC., 70%. The inhibition at 10 µM at C[…]. CB1 is 2%; at ADENOSINE A3 REC. it was 13%; on ESTROGEN REC. α, 0%; on SEROTONIN TRANSPORTER, -5%; at 5HT1A it was 1%; on ACETYLCHOLINESTERASE, 3%. Moreover, the inhibition at 10 µM at α2A-ADRENOCEPTOR was 7%; on α1A-ADRENOCEPTOR, 13%; at GLUC[…]. it was -13%. Also, at ABCB1 (MDR1, human P-gp), the Papp A→B was 11.7 ×10⁻⁶ cm/s. The compound further registered an intrinsic metabolic clearance (hepatocyte CLint) at 1 µM in the series “Hepatocyte clearance” of 7.3 µL/min/1e6 cells. In addition, on CYP2C9, the “CYP2C9 Inhibition” value is listed as 2%. In series [1], this compound registered a Papp at 18 h, 150 µM of 4 ×10⁻⁶ cm/s.

Take `O=C(c1ccc2nc(-c3cnccc3C3CCCC3)oc2c1)N1CCN(c2nc3nc(Cl)ccc3o2)CC1` [Compound 23]: the inhibition at 10 µM at A[…]. ENZ. was -17%; on HISTAMINE H2 REC., -1%; on CDK2, 8%; on μ OPIOID REC., 21%; at 5HT2A, 2%; at NORE[…]., 15%. In addition, the inhibition at 10 µM on DOPAMINE D2 REC. (short) was -15%; at β2-ADRENOCEPTOR it was 4%; at β1-ADRENOCEPTOR, 2%; at HISTAMINE H3 REC. it was 4%; at PROSTAGLANDIN F REC., -3%; on ADENOSINE A1 REC., 24%. Besides, the inhibition at 10 µM on C[…]. CB1 is 2%; on ADENOSINE A3 REC., 21%; at ESTROGEN REC. α it was 5%; at SEROTONIN TRANSPORTER, 10%; on 5HT1A, 11%; on ACETYLCHOLINESTERASE, -1%. The inhibition at 10 µM was 3% on α2A-ADRENOCEPTOR, 4% at α1A-ADRENOCEPTOR and -2% on GLUC[…].. In addition, the “PCP NMDA REC. percent activity or inhibition compared to the assay reference” value with PCP NMDA REC. worked out at 7%. The compound also had a Papp A→B on ABCB1 (MDR1, human P-gp) of 8.9 ×10⁻⁶ cm/s. Besides, in the series with GABA-A, the “GABA-A percent activity or inhibition compared to the assay reference” value (“GABA-A percent activity or inhibition” for short) turned out to be 16%. In the series “Hepatocyte clearance”, this compound came in with a hepatocyte CLint at 1 µM of 179 µL/min/1e6 cells. For the same compound, in the series with CA2+ CHANNEL (L-TYPE), the “CA2+ CHANNEL (L-TYPE) percent activity or inhibition compared to the assay reference” value was 73%. The “CYP2C9 Inhibition” value on CYP2C9 came out at 45%. Besides, the “GLYCINE REC. percent activity or inhibition compared to the assay reference” value with GLYCINE REC. is given as 7%. Besides, the “NEURONAL NICOTINIC REC. percent activity or inhibition compared to the assay reference” value with NEURONAL NICOTINIC REC. was -3%. In series [1], this compound displayed a Papp at 18 h, 150 µM of 4 ×10⁻⁶ cm/s.

As for `O=C(c1ccc2nc(-c3cnccc3C3(C4CCC4)CC3)oc2c1)N1CCN(c2nc3nc(Cl)ccc3o2)CC1` [Compound 27], the “PCP NMDA REC. percent activity or inhibition compared to the assay reference” value in the series with PCP NMDA REC. is 8%. Moreover, the P-gp on ABCB1 (MDR1, human P-gp) (apparent permeability, apical-to-basolateral, LLC-PK1 cells with human P-gp) amounted to 7.1 ×10⁻⁶ cm/s. For the same compound, the “GABA-A percent activity or inhibition” value with GABA-A is 69%. In addition, the Hepatocyte clearance in “Hepatocyte clearance” (cryopreserved hepatocytes of human origin, 1 µM compound) amounted to 101.0 µL/min/10^6 cells. For the same compound, the “CA2+ CHANNEL (L-TYPE) percent activity or inhibition compared to the assay reference” value with CA2+ CHANNEL (L-TYPE) was 90%. Also, the “CYP2C9 Inhibition” value on CYP2C9 is reported as 73%. Besides, in the series with GLYCINE REC., the “GLYCINE REC. percent activity or inhibition compared to the assay reference” value amounted to 3%. In addition, the “NEURONAL NICOTINIC REC. percent activity or inhibition compared to the assay reference” value in the series on NEURONAL NICOTINIC REC. is given as -8%. Also, in [1] (donor buffer pH 6.0, 18-hour incubation), the PAMPA permeability is 0.9 10^-6 cm/s.

As to `O=C(c1ccc2nc(-c3cnccc3C3CCCC3)oc2c1)N1CC2(CC(n3cnc(C4CC4)n3)C2)C1` [Compound 29], the inhibition at 10 µM on A[…]. ENZ. was -13%; at HISTAMINE H2 REC. it was 11%; at CDK2, -6%; at μ OPIOID REC., 30%; on 5HT2A it was 10%; at NORE[…]., 22%. Also, the inhibition at 10 µM at DOPAMINE D2 REC. (short) stood at 4%; at β2-ADRENOCEPTOR, 7%; at β1-ADRENOCEPTOR, 7%; at HISTAMINE H3 REC. it was 12%; at PROSTAGLANDIN F REC., 21%; on ADENOSINE A1 REC., 9%. Besides, the inhibition at 10 µM is 9% on C[…]. CB1; 28% at ADENOSINE A3 REC.; -3% on ESTROGEN REC. α; -11% at SEROTONIN TRANSPORTER; 19% at 5HT1A; 0% at ACETYLCHOLINESTERASE. Also, the results for the inhibition at 10 µM on α2A-ADRENOCEPTOR, at α1A-ADRENOCEPTOR and on GLUC[…]. were 18%, 50% and -6%, respectively. Besides, in the series with PCP NMDA REC., the “PCP NMDA REC. percent activity or inhibition compared to the assay reference” value is reported as -1%. The compound further yielded a Papp A→B on ABCB1 (MDR1, human P-gp) of 13.2 ×10⁻⁶ cm/s. The “GABA-A percent activity or inhibition” value in the series with GABA-A came to 61%. The same compound showed a hepatocyte CLint at 1 µM in the series “Hepatocyte clearance” of 181 µL/min/1e6 cells. Moreover, the “CA2+ CHANNEL (L-TYPE) percent activity or inhibition compared to the assay reference” value in the series with CA2+ CHANNEL (L-TYPE) is listed as 32%. Moreover, at CYP2C9, the “CYP2C9 Inhibition” value was determined as 70%. The “GLYCINE REC. percent activity or inhibition compared to the assay reference” value with GLYCINE REC. is reported as -2%. Moreover, the “NEURONAL NICOTINIC REC. percent activity or inhibition compared to the assay reference” value in the series with NEURONAL NICOTINIC REC. amounted to 6%. In series [1], this compound registered a Papp at 18 h, 150 µM of 5.9 ×10⁻⁶ cm/s. In series [1] (in words, SI2.2, Fig. S1 (PAMPA vs LipE)), the cell permeability entry was “potent cell permeability”.

A word on the inhibition: it is the relative decrease from the control value, in per cent. For orientation: Papp A→B means the apparent permeability from the apical to the basolateral side of a cell layer. Low readings indicate slow passage, high ones fast passage. In general, hepatocyte CLint refers to the rate of metabolic loss divided by the concentration. By Papp is commonly meant a coefficient for how fast a substance crosses the barrier.

Source of the values: paper PMC12749626, “Expediting hit-to-lead progression in drug discovery through reaction prediction and multi-dimensional optimization” (Nature Communications, 2025).
